Reference: patent US6683103B2, “Sulfonamides for treatment of endothelin-mediated disorders” (Texas Biotechnology Corporation, priority 1997, dated 2004)

System: Pulmonary Hypertension model
Assay: Pulmonary hypertension model, in vivo efficacy
Parameters: species or system rat; key to in vivo Efficacy: ++ effective at 5 mg/kg; − no effect at 5 mg/kg; + effective at 15 mg/kg
Details: Pulmonary Hypertension model
Procedure: As used herein, efficacy refers to the maximal effect that can be produced by a compound. Efficacy can be determined by methods known to those of skill in the art. For example, it can be determined by the properties of the compound and its receptor-effector system and is reflected in the plateau of the concentration-effect curve. In vivo efficacy refers to efficacy which is determined in an animal model. For example, in vivo efficacy of the compounds described herein can be determined by amelioration of hypoxia-induced pulmonary hypertension in rat. In this context, in vivo efficacy refers to the ability of a compound to restore an elevated pulmonary artery pressure to a normal value. […] J. Physiol. […] The in vivo activity was measured in a pulmonary hypertension model and is a measure of the activity of the compounds at selected dosages.

For `Cc1cc2c(cc1CC(=O)c1sccc1S(=O)(=O)Nc1onc(C)c1Cl)OCO2` [N-(4-chloro-3-methyl-5-isoxazolyl)-2-[2-methyl-4,5-(methylenedioxy)phenylacetyl]thiophene-3-sulfonamide], the “in vivo Efficacy” value was “++”.
